We go through 1 compound from patent US20180311238A1, “Selective Agonist Of a6 Containing nAChRs” (Saniona A/S, priority 2017, published 2018).

Structures are written as SMILES.

In assay [1] the target is T1, human α3β4 nicotinic receptors (Homo sapiens, UniProt P30926+P32297).
T1 construct: expressed in transfected cells
In words: FLIPR fluorescence-based calcium assay, α3β4. The class given is cell-based. Particulars: FLIPR calcium response relative to nicotine. As for the experimental part: (§1) The level of agonist activity of 9-methyl-3-pyridin-3-yl-3,9-diaza-bicyclo[3.3.1]nonane was tested in functional fluorescence-based calcium assays using TE671 cells and HEK293 cells stably expressing human α6/α3β2β3^V273S, α3β4 and α4β2 nicotinic receptors.
(§2) Cells were plated on poly-D-lysine coated 384-well microtiter plates and were allowed to proliferate for 24 h. Dye loading was performed by incubating cells with 2 μM fluo-4/AM for 1.5 h at room temperature. Dye not taken up by cells was removed by aspiration followed by three washing cycles with 25 μl of NMDG Ringer buffer (in mM: 140 NMDG, 5 KCl, 1 MgCl2, 10 CaCl2, 10 HEPES, pH 7.4) after which the cells were kept in 25 μl of the same buffer. The microtiter plates were placed in a Fluoremetric Imaging Plate Reader (FLIPR) and subjected to test compound at various concentrations. Background subtracted compound-mediated calcium responses were normalized to 100 μM nicotine control responses and pEC50 as well as relative maximal efficacy values were determined.

For assay [2], the target named is T2, neuromuscular α1-containing receptor subtypes (Homo sapiens, UniProt P02708+P07510+Q07001).
T2 construct: endogenous in cells; host or cells: TE671
T2 sequence (P02708 21-457): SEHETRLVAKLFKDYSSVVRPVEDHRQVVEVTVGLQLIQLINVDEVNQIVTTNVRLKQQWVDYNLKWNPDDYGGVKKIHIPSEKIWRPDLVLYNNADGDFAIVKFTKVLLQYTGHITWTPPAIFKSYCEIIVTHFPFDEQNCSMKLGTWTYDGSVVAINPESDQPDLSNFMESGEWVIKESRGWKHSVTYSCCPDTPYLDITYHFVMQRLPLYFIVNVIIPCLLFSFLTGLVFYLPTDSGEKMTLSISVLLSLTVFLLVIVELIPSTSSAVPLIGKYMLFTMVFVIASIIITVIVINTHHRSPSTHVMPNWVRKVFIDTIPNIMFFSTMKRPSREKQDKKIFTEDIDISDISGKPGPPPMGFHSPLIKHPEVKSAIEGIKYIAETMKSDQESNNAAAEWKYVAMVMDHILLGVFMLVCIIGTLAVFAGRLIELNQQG
T2 sequence (P11230 24-501 partner): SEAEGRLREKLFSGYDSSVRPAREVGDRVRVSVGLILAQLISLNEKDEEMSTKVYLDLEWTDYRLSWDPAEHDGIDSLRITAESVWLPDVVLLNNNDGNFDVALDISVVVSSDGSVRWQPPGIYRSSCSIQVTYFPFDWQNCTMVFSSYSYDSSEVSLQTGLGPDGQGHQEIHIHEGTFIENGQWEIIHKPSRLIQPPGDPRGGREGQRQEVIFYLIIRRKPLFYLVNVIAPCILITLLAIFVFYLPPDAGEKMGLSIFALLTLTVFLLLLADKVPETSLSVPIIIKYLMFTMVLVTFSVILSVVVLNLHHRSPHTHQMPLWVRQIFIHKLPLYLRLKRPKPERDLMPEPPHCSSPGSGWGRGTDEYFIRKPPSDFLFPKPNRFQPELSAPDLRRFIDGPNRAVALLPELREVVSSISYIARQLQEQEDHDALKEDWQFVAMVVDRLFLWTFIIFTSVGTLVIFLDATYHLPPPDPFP
T2 sequence (P07510 23-517): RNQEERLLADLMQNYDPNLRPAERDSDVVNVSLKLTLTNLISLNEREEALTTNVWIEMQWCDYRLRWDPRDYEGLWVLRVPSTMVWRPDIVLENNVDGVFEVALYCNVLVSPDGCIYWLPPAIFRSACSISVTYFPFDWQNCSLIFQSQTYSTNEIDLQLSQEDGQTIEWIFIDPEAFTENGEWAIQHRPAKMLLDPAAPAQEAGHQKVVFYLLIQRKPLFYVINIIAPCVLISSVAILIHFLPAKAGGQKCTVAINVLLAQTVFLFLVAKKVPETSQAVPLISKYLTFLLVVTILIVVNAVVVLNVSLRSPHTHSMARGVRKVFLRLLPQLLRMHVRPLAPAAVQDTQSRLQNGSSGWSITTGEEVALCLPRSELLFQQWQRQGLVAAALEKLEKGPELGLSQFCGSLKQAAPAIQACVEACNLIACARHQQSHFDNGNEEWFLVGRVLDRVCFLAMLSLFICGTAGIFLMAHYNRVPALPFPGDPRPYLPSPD
T2 sequence (Q07001 22-517): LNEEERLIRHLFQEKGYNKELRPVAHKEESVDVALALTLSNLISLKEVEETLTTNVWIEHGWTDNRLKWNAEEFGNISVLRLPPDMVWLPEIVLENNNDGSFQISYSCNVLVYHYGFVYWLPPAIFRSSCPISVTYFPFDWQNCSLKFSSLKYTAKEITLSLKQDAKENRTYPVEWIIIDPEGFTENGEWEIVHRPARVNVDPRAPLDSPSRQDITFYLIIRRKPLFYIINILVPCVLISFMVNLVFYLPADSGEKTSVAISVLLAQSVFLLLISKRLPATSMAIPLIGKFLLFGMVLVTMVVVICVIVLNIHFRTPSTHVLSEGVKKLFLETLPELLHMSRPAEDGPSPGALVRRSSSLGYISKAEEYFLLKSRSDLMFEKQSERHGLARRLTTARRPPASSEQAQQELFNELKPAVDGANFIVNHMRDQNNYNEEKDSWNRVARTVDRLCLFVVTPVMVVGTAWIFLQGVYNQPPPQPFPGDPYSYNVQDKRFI
In words: FLIPR fluorescence-based calcium assay, TE671 cells. The class given is cell-based. Particulars: FLIPR calcium response relative to nicotine. As for the experimental part: as §1, §2
The neuromuscular nAChRs subtype—composed of α1β1γδ subunits—can be studied in the human medulloblastoma cell line TE671, and the α1 subunit can be specifically labelled with ^3H-α-bungarotoxin.

Another assay deals with α7 (Rattus norvegicus, UniProt Q05941). The experiment in a line: biochemical. Type of assay: binding.
Sequence of α7 (Q05941 23-502): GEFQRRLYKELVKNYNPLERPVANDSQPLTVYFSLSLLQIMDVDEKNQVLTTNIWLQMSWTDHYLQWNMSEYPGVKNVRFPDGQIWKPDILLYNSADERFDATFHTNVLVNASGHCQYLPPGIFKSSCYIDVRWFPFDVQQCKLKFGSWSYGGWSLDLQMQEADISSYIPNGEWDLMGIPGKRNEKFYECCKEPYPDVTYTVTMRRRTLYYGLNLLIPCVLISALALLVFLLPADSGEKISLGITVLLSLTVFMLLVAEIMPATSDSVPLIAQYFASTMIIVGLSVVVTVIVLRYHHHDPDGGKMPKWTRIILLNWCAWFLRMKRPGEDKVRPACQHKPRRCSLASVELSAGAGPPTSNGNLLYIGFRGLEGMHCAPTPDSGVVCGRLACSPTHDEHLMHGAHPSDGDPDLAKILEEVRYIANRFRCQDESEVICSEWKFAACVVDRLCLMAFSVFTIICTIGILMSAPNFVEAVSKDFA
Assay [3] relates to L-dopa-induced dyskinesia. The experiment in a line: L-dopa-induced dyskinesia (AIMs) in 6-OHDA lesioned rats. The class given is in vivo, rat. As to the method:
Adult male Sprague-Dawley rats (Harlan labs), ˜3 months old and weighing 250-275 grams, were housed in groups of 2 in a temperature- and humidity-controlled colony room that was maintained on a 12 hour light/dark cycle. Food and water were available ad libitum throughout the experiment with the exception that animals were food fasted for 12 hours prior to the surgical (6-OHDA lesion) procedure.
Prior to surgery, all animals were anesthetized and placed in the prone position. The hair was clipped from the head and the surgical site aseptically washed with betadine and alcohol. The animals head was fixed during surgery by a stereotaxic device and continuously anesthetized using isoflurane (1.5-2.0%) via a nosecone attached to the stereotaxic frame. […] The animals were monitored by the surgeon for suitable hemostasis and respiration. […]
For quantification of L-DOPA-induced AIMs, rats were placed in transparent plastic cages and observed during the first minute of every 30-minute period in the 2 hours following the injection of L-DOPA. […]
Each of the four subtypes was scored on a severity scale from 0 to 4. • 0=absent • 1=present during less than half of the observation time • 2=present for more than half of the observation time • 3=present all the time but suppressible by external stimuli • 4=present all the time and not suppressible by external stimuli. […]

The target in assay [4] is T3, (Homo sapiens, UniProt P30926+P32297).
T3 construct: expressed in transfected cells; host or cells: Xenopus laevis oocytes injected with cRNA
T3 sequence (P32297 32-505): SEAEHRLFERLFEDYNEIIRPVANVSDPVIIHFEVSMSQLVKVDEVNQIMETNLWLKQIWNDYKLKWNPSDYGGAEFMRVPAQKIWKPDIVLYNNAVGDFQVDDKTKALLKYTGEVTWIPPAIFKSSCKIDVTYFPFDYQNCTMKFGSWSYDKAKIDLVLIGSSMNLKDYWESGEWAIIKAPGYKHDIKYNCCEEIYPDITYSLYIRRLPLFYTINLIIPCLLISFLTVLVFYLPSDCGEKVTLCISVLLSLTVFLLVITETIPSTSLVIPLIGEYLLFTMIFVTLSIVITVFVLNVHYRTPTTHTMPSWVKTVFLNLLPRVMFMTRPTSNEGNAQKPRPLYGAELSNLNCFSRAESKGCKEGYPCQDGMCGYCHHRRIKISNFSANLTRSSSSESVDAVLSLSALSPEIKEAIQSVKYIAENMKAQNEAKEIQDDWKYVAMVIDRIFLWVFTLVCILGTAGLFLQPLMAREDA
T3 sequence (P30926 22-498): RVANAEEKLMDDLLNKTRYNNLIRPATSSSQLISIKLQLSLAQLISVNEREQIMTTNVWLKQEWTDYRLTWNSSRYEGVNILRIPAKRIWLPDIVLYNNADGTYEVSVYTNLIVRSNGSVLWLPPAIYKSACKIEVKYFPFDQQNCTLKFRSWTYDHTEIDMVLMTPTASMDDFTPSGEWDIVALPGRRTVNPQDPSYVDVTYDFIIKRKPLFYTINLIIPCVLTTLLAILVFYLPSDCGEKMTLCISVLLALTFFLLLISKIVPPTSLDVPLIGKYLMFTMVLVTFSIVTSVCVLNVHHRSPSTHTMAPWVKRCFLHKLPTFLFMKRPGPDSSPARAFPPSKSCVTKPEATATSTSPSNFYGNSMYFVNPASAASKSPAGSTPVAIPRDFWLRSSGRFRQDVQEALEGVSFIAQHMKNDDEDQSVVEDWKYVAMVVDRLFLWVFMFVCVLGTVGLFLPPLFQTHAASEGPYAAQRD
In words: Oocyte two-electrode voltage-clamp electrophysiology, α3β4. Type of assay: cell-based. The following applies: Xenopus laevis oocytes. As to the method: Two-electrode voltage-clamp electrophysiology recordings were done in Xenopus laevis oocytes injected with approximately 25 ng cRNA. After injection, oocytes were incubated at 17° C. for 2-3 days. During measurements, an oocyte was placed in a custom designed recording chamber where compound solutions are added directly to the oocyte via a glass capillary. Compound solutions were prepared on the day of measurement and applied to oocytes with a flowrate of 2.0 ml/min. All datasets were baseline subtracted and responses to individual applications were read as peak current amplitudes. Concentration response relationships describing compound effect at a fixed acetylcholine concentration were fitted to a monophasic Hill-equation. Potency (EC50) and efficacy values (fitted maximal current relative to maximal current of acetylcholine).
A general note: In two-electrode clamp one electrode senses voltage and the other passes current.

Assay [5] has as its target T4, neuromuscular nAChRs subtype composed of α1β1γδ subunits (Homo sapiens, UniProt P02708+P07510+Q07001).
T4 construct: endogenous in cells; host or cells: TE671
The experiment in a line: biochemical. The class given is binding.

T1 sequence (P32297 32-505): as the sequence (P32297 32-505) above
T1 sequence (P30926 22-498): as the sequence (P30926 22-498) above
T4 sequence (P02708 21-457): as the sequence (P02708 21-457) above
T4 sequence (Q07001 22-517): as the sequence (Q07001 22-517) above
T4 sequence (P07510 23-517): as the sequence (P07510 23-517) above
T4 sequence (P11230 24-501, further chain): as the sequence (P11230 24-501 partner) above

As to `CN1C2CCCC1CN(c1cccnc1)C2` [9-methyl-3-pyridin-3-yl-3,9-diaza-bicyclo[3.3.1]nonane], the efficacy entry in assay [1], in assay [2] and in assay [4] was “practically no efficacy” throughout. For the same compound, the Ki on α7 was determined as 290 nM; in assay [5], 320 nM. In assay [3] (3.0 mg/kg), the “L-dopa-induced AIMs, follow-up dose” value is listed as “did not further decrease L-dopa-induced AIMs”. The “L-dopa-induced AIMs” value in assay [3] (0.1, 0.3, 1.0 mg/kg sc 30 minutes prior to L-dopa (8 mg/kg)) was “significant, dose-related decrease in AIMs with the 0.3 and 1.0 mg/kg doses reaching statistical significance relative to saline controls”.

In general, Ki refers to a measure of affinity in units of concentration, obtained from inhibition or displacement.
